Results reported in patent publication US6559142B2, “Sulfonamide matrix metalloproteinase inhibitors” (Warner-Lambert Company, priority 2001, dated 2003).
pIC50: −log10 of the molar value.

What was measured:
Assay type in all cases: biochemical
[1] = biological target: T1, MMP-1FL (full-length interstitial collagenase) (Homo sapiens, UniProt P03956); test: Thiopeptolide hydrolysis inhibition assay, MMP-1FL; conditions: thiopeptolide substrate, HEPES pH 7.0, 22° C.
T1 sequence (P03956 100-469): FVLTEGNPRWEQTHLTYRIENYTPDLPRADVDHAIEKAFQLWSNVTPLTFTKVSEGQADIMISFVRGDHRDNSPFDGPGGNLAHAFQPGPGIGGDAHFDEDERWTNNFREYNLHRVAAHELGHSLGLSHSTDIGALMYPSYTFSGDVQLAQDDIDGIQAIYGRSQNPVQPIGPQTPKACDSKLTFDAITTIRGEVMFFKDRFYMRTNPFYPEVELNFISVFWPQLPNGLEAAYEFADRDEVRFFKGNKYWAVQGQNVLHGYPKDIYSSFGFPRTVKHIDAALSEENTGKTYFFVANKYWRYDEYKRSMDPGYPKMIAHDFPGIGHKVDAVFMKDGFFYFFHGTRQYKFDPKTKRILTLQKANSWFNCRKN
Text: (§1) The assays measure the amount by which a test compound reduces the hydrolysis of a thiopeptolide substrate catalyzed by a matrix metalloproteinase enzyme. Such assays are described in detail by Ye et al., Biochemistry, 1992;31(45):11231-11235, hereby incorporated herein by reference.
(§2) Thiopeptolide substrates show virtually no decomposition or hydrolysis at or below neutral pH in the absence of a matrix metalloproteinase enzyme. A typical thiopeptolide substrate commonly utilized for assays is Ac-Pro-Leu-Gly-thioester-Leu-Leu-Gly-OEt. A 100 μL assay mixture will contain 50 mM of N-2-hydroxyethylpiperazine-N′-2-ethanesulfonic acid buffer (“HEPES”) at pH 7.0, 10 mM CaCl2, 100 μM thiopeptolide substrate, and 1 mM 5,5′-dithio-bis-(2-nitrobenzoic acid) (DTNB). The thiopeptolide substrate concentration may be varied from, for example, 10 to 800 μM, in order to obtain Km and Kcat values. The change in absorbance at 405 nm is monitored on a Thermo Max microplate reader (Molecular Devices, Menlo Park, Calif.) at room temperature (22° C.). The calculation of the amount of hydrolysis of the thiopeptolide substrate is based on E412=13600 M^−1 cm^−1 for the DTNB-derived product 3-carboxy-4-nitrothiophenoxide. Assays are carried out with and without matrix metalloproteinase inhibitor compounds, and the amount of hydrolysis is compared for a determination of inhibitory activity of the test compounds.
(§3) Several representative compounds have been evaluated for their ability to inhibit various matrix metalloproteinase enzymes. In Table 1, MMP-1FL refers to full-length interstitial collagenase; MMP-2FL refers to full-length Gelatinase A; MMP-3CD refers to the catalytic domain of stromelysin-1; MMP-7FL refers to full-length matrilysin; MMP-9FL refers to full-length Gelatinase B; MMP-13CD refers to the catalytic domain of collagenase 3; and MMP-14CD refers to the catalytic domain of MMP-14. Test compounds were evaluated at various concentrations, in order to determine their respective IC50 values, the micromolar concentration of compound required to cause a 50% inhibition of the catalytic activity of the respective enzyme.

[2] = biological target: T2, MMP-2FL (full-length Gelatinase A) (Homo sapiens, UniProt P08253); test: Thiopeptolide hydrolysis inhibition assay, MMP-2FL; conditions: thiopeptolide substrate, HEPES pH 7.0, 22° C.
T2 sequence (P08253 110-660): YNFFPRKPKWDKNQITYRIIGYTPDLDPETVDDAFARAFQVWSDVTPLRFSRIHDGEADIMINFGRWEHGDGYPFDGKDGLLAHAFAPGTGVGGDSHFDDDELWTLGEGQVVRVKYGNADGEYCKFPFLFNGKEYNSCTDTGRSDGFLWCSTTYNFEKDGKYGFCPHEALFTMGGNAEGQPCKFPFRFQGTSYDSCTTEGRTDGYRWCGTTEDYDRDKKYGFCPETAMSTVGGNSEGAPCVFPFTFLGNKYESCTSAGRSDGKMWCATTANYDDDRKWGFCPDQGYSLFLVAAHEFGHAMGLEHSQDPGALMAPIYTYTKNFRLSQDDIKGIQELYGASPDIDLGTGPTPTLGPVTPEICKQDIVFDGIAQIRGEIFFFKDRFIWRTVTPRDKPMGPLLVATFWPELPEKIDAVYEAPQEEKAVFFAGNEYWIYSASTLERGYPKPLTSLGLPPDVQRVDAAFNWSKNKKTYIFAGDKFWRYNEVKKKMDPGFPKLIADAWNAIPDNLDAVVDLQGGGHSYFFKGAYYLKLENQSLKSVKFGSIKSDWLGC
Text: as §1, §2, §3

[3] = biological target: MMP-3CD (catalytic domain of stromelysin-1) (Homo sapiens, UniProt P08254); test: Thiopeptolide hydrolysis inhibition assay, MMP-3CD; conditions: thiopeptolide substrate, MES buffer pH 6.0
Text: as §1, §2
It should be appreciated that the assay buffer used with MMP-3CD is 50 mM of N-morpholinoethanesulfonate (“MES”) at pH 6.0 rather than the HEPES buffer at pH 7.0 described above.
as §3

[4] = biological target: T3, MMP-7FL (full-length matrilysin) (Homo sapiens, UniProt P09237); test: Thiopeptolide hydrolysis inhibition assay, MMP-7FL; conditions: thiopeptolide substrate, HEPES pH 7.0, 22° C.
T3 sequence (P09237 95-267): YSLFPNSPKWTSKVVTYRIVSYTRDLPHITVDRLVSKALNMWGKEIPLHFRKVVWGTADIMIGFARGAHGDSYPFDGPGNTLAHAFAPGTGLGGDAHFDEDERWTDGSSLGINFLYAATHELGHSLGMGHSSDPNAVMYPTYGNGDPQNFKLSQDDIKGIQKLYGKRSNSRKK
Text: as §1, §2, §3

[5] = biological target: MMP-9FL (full-length Gelatinase B) (Homo sapiens, UniProt P14780); test: Thiopeptolide hydrolysis inhibition assay, MMP-9FL; conditions: thiopeptolide substrate, HEPES pH 7.0, 22° C.
Text: as §1, §2, §3

[6] = biological target: MMP-13CD (catalytic domain of collagenase 3) (Homo sapiens, UniProt P45452); test: Thiopeptolide hydrolysis inhibition assay, MMP-13CD; conditions: thiopeptolide substrate, HEPES pH 7.0, 22° C.
Text: as §1, §2, §3

[7] = biological target: MMP-14CD (catalytic domain of MMP-14) (Homo sapiens, UniProt P50281); test: Thiopeptolide hydrolysis inhibition assay, MMP-14CD; conditions: thiopeptolide substrate, HEPES pH 7.0, 22° C.
Text: as §1, §2, §3

MMP-3CD (catalytic domain of stromelysin-1), sequence (P08254 100-272 limits assumed): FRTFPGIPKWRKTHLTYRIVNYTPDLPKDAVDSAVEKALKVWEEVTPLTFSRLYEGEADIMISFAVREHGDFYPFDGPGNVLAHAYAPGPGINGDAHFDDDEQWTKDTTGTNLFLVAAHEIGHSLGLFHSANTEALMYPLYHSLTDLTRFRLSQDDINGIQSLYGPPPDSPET
MMP-9FL (full-length Gelatinase B), sequence (P14780 94-707, species assumed): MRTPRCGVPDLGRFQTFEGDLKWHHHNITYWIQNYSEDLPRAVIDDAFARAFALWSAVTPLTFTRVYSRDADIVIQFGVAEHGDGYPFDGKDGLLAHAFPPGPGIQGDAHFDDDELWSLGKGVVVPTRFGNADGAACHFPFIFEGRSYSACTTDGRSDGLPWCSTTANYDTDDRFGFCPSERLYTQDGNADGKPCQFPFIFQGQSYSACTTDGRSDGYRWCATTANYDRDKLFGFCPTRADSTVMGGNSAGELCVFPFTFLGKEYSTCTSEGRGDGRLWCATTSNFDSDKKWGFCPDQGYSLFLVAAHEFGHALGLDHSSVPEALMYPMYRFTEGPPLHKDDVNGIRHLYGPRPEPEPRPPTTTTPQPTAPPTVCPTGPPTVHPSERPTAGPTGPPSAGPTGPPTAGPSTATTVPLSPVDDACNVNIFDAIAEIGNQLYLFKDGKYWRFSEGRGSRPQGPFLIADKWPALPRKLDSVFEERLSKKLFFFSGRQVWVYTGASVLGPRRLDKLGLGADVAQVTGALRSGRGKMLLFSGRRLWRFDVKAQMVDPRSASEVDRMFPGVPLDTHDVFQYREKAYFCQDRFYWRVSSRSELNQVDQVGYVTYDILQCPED

Row | SMILES | pIC50 [1] | pIC50 [2] | pIC50 [3] | pIC50 [4] | pIC50 [5] | pIC50 [6] | pIC50 [7]
1 | CC1(C)SCCN(S(=O)(=O)c2ccc3c(c2)oc2ccccc23)[C@H]1C(=O)NO [Example 2, (S)-4-(Dibenzofuran-3-sulfonyl)-2,2-dimethyl-thiomorpholine-3-carboxylic Acid Hydroxyamide] | 7.89 | 7.82 | 7.96 | 6.70 | 6.68 | 8.40 | 7.59
2 | CC1(C)SCCN(S(=O)(=O)c2ccc3oc4ccccc4c3c2)[C@H]1C(=O)NO [Example 8, (S)-4-(Dibenzofuran-2-sulfonyl)-2,2-dimethyl-thiomorpholine-3-carboxylic Acid Hydroxyamide] | 7.77 | 7.82 | 8.05 | 7.55 | 6.59 | 8.52 | 7.40
3 | CC1(C)SCCN(S(=O)(=O)c2ccc3oc4cc(Br)ccc4c3c2)[C@H]1C(=O)O [Example 9, (S)-4-(7-Bromo-dibenzofuran-2-sulfonyl)-2,2-dimethyl-thiomorpholine-3-carboxylic Acid] | 4.15 | 5.40 | 7.70 | 5.92 | 4.19 | 6.04 | 5.42
4 | CC1(C)SCCN(S(=O)(=O)c2ccc3oc4cc(Br)ccc4c3c2)[C@H]1C(=O)NO [Example 10, (S)-4-(7-Bromo-dibenzofuran-2-sulfonyl)-2,2-dimethyl-thiomorpholine-3-carboxylic Acid Hydroxyamide] | 7.38 | 8.15 | 8.40 | 7.51 | 7.18 | 8.70 | 7.92
5 | COC(=O)c1ccc2c(c1)oc1ccc(S(=O)(=O)N3CCSC(C)(C)[C@@H]3C(=O)O)cc12 [Example 11, (S)-4-(7-Methoxycarbonyl-dibenzofuran-2-sulfonyl)-2,2-dimethyl-thiomorpholine-3-carboxylic Acid] | 4.00 | 5.28 | 7.03 | 5.46 | 4.16 | 5.34 | 4.70
6 | CC1(C)SCCN(S(=O)(=O)c2ccc3oc4cc([N+](=O)[O-])ccc4c3c2)[C@H]1C(=O)NO [Example 14, (S)-2,2-Dimethyl-4-(7-nitro-dibenzofuran-2-sulfonyl)-thiomorpholine-3-carboxylic Acid Hydroxyamide] | 7.92 | 7.66 | 8.30 | 7.42 | 6.72 | 8.70 | 7.62
7 | CC1(C)[C@H](C(=O)NO)N(S(=O)(=O)c2ccc3oc4ccccc4c3c2)CCS1(=O)=O [Example 15, (S)-4-(Dibenzofuran-2-sulfonyl)-2,2-dimethyl-1,1-dioxo-thiomorpholine-3-carboxylic Acid Hydroxyamide] | 7.48 | 6.60 | 8.10 | 7.49 | 5.74 | 7.89 | 7.01

Further lines, results first:

Row | pIC50 [1] | pIC50 [2] | pIC50 [3] | pIC50 [4] | pIC50 [5] | pIC50 [6] | pIC50 [7] | SMILES
8 | 5.85 | 7.13 | 7.39 | 4.26 | 4.65 | 6.01 | 7.19 | CC1(C)SCCN(S(=O)(=O)c2ccc3c(c2)oc2ccccc23)[C@H]1C(=O)O [Example 1, (S)-4-(Dibenzofuran-3-sulfonyl)-2,2-dimethyl-thiomorpholine-3-carboxylic Acid]
9 | 4.00 | 5.02 | 5.60 | 4.00 | 3.82 | 4.64 | 5.00 | CC1(C)SCN(S(=O)(=O)c2ccc3c(c2)oc2ccccc23)[C@@H]1C(=O)O [Example 3, R-3-(Dibenzofuran-3-sulfonyl)-5,5-dimethyl-thiazolidine-4-carboxylic Acid]
10 | 5.16 | 5.41 | 5.49 | 4.23 | 4.74 | 5.85 | 4.96 | CC1(C)SCN(S(=O)(=O)c2ccc3c(c2)oc2ccccc23)[C@@H]1C(=O)NO [Example 4, R-3-(Dibenzofuran-3-sulfonyl)-5,5-dimethyl-thiazolidine-4-carboxylic Acid Hydroxyamide]
11 | 4.64 | 6.30 | 6.89 | 4.00 | 4.00 | 5.29 | 6.08 | CC1(C)SCCN(S(=O)(=O)c2ccc3c(c2)Cc2ccccc2-3)[C@H]1C(=O)O [Example 5, (S)-4-(9H-Fluorene-2-sulfonyl)-2,2-dimethyl-thiomorpholine-3-carboxylic Acid]
12 | 6.85 | 7.62 | 8.10 | 6.06 | 6.26 | 8.40 | 7.20 | CC1(C)SCCN(S(=O)(=O)c2ccc3c(c2)Cc2ccccc2-3)[C@H]1C(=O)NO [Example 6, (S)-4-(9H-Fluorene-2-sulfonyl)-2,2-dimethyl-thiomorpholine-3-carboxylic Acid Hydroxyamide]
13 | 4.23 | 5.41 | 6.68 | 4.80 | 4.00 | 4.96 | 5.40 | CC1(C)SCCN(S(=O)(=O)c2ccc3oc4ccccc4c3c2)[C@H]1C(=O)O [Example 7, (S)-4-(Dibenzofuran-2-sulfonyl)-2,2-dimethyl-thiomorpholine-3-carboxylic Acid]
14 | 6.82 | 7.77 | 8.22 | 7.54 | 7.33 | 8.30 | 7.02 | COC(=O)c1ccc2c(c1)oc1ccc(S(=O)(=O)N3CCSC(C)(C)[C@@H]3C(=O)NO)cc12 [Example 12, (S)-4-(7-Methoxycarbonyl-dibenzofuran-2-sulfonyl)-2,2-dimethyl-thiomorpholine-3-carboxylic Acid Hydroxyamide]
15 | 4.22 | 4.48 | 6.00 | 5.80 | 4.00 | 5.57 | 4.82 | CC1(C)SCCN(S(=O)(=O)c2ccc3oc4cc([N+](=O)[O-])ccc4c3c2)[C@H]1C(=O)O [Example 13, (S)-2,2-Dimethyl-4-(7-nitro-dibenzofuran-2-sulfonyl)-thiomorpholine-3-carboxylic Acid]
